Results reported in publication PMC6595003, “Insights into real-time chemical processes in a calcium sensor protein-directed dynamic library” (Nature Communications, 2019).
“And” between values parts separate entries of the source, which are not always exact repeats. Equal entries are not always repeated. Values belong to the molecule of their own block, whether it stands above or below them.

Legend:
[1] = Parallel artificial membrane permeability assay (PAMPA-BBB); assay type: in vitro ADME; settings: for Pe (10-6 cm s-1) Experimental 1 / Pe (10-6 cm s-1) Experimental 2 / Pe (10-6 cm s-1) Experimental 3: source data; for Papp at 2.5 h: pig, PAMPA-BBB, pH 7.4, 5% DMSO, 2 h 30 min at 25 °C, mean ± SD, read-out: Pe, in vitro permeability
Excerpt: The PAMPA methodology is a high-throughput technique to predict passive permeability through biological membranes that employs a brain lipid porcine as membrane. […]
From this equation and following the pattern established in the literature for BBB permeation prediction2 we could classify compounds as CNS + when they present a permeability > 4.50 x 10-6 cm s-1. Source data are provided as a Source Data file. […]
Parallel artificial membrane permeability assays. Prediction of the brain penetration was evaluated using a parallel artificial membrane permeability assay (PAMPA).4 Ten commercial drugs, phosphate buffer saline solution at pH 7.4 (PBS). DMSO and dodecane were purchased from Sigma, Across organics, Aldrich and Fluka. The porcine […]
plate was a 96-well filtrate plate (Multiscreen® IP Sterile Plate PDVF membrane, pore […]
MAIPS4510) and the acceptor plate was an indented 96-well plate (Multiscreen®, catalog no. MAMCS9610) both from Millipore. Filter PDVF […]
membrane units (diameter 30 mm, pore size 0.45 µm) from Symta were used to filter the samples. A 96-well plate UV reader (Thermoscientific, Multiskan spectrum) was used for the UV measurements.

[2] = commercial drugs; ref 5 (Hou et al., 2004); cited from earlier work
NCS-1/Ric8a interaction = tested on: NCS-1/Ric8a interaction; design: method as in PMID 28119500, PMID 29966094; settings: cited from earlier work
dNCS-1 = target: T1, dNCS-1 (Drosophila melanogaster, UniProt Q9VWX8); experiment: Protein-directed DCL, HPLC-MS relative peak area with and without dNCS-1
T1 construct: made in house; host or cells: E. coli
T1 sequence (Q9VWX8 1-187): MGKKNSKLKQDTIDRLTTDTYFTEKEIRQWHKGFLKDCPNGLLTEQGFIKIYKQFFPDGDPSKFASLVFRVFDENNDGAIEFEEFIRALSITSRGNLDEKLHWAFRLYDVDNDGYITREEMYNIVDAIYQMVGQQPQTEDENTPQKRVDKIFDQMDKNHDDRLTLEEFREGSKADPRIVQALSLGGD
Experimental: The reversibility of the DCL was evident, since an identical equilibrium distribution to that shown in Fig. 4a was obtained when two different starting points were employed. The observed degree of amplification was 3b > 3e ≥ 3d > 3a. The precise composition of the DCL (with and without dNCS-1), was assessed by measuring the relative peak area (RPA). Indeed, the normalized change of RPA was used to quantify the protein influence in the final outcome (Supplementary Figs. 9, 10 and Supplementary Tables 1, 2 and 3)[28]. […] Note that compounds 3a–3e can exist as E/Z isomers of the C = N bond. […].
Aldehyde 1 (1.2 μL, 50 mM, DMSO), the five acylhydrazides 2a–2e (5 × 3.6 μL, 50 mM, DMSO), p-anisidine (1 μL, 12 M, DMSO) and buffer 20 mM Tris, 0.5 M NaCl and 1 mM CaCl2, 1 mM DTT at pH 7.4 (750 μL) in 3.3 % DMSO. The mixture was stabilized in 5 h at 4 °C. HPLC analysis was performed.
Aldehyde 1 (1.2 μL, 50 mM, DMSO), the five acylhydrazides 2a–2e (5 × 3.6 μL, 50 mM, DMSO), p-anisidine (1 μL, 12 mM, DMSO) and dNCS-1 in buffer 20 mM Tris, 0.5 M NaCl and 1 mM CaCl2, 1 mM DTT at pH 7.4 (66.7 μM, 750 μL, 1 eq.). The experiment is in 3.3% DMSO. The mixture was stabilized for 5 h at 4 °C. Then, dNCS-1 was removed by ultrafiltration using an Amicon Ultra filter (0.5–10 KDa). HPLC analysis was performed and the traces were compared with the blank composition.
Supplementary Figure 9. Relative Peak Area of the DCL with and without dNCS1. Aldehyde
1 (1.2 µL, 50 mM), 2a-e (3.6 µL, 50 mM), catalyst (1 µL, 12 M), dNCS-1:1 [1:1], tris buffer (20
mM, pH 7.4), 1 mM CaCl2, 0.5 M NaCl, 1 mM DTT, T = 4 °C, 2% DM SO. Mean relative peak
area (RPA) of each acylhydrazone of the library in the absence (blank) and presence of dNCS-1.
Error bars indicate standard deviation (SD) over three experiments. The calculation is set by the
sum of all peak areas to 100% and assigning each peak its percentage. Source data are provided
R P A N o rm aliz ed V a riation
Supplementary Figure 10. RPA normalized of variation of DCL with and without dNCS1.
Aldehyde 1 (1.2 µL, 50 mM), 2a-e (3.6 µL, 50 mM), catalyst (1 µL, 12 M), dNCS-1:1 [1:1], tris
buffer (20 mM, pH 7.4), 1 mM CaCl2, 0.5 M NaCl, 1 mM DTT, T = 4 °C, 2% DM SO. Error
bars indicate SD over three experiments. Source data are provided as a Source Data file.

SMILES: Cn1c(=O)c2c(ncn2C)n(C)c1=O [Caffeine]
- Pe (10-6 cm s-1) Experimental 1 [1]: 1.3 10-6 cm s-1
- Pe (10-6 cm s-1) Experimental 2 [1]: 0.87 10-6 cm s-1
- Pe (10-6 cm s-1) Experimental 3 [1]: 1.70 10-6 cm s-1

SMILES: CCOC(=O)CC(SP(=S)(OC)OC)C(=O)OCC (stereo not shown) [Malathion]
- Experimental log S [2]: -3.37

SMILES: O=C1CN(/N=C/c2ccc([N+](=O)[O-])o2)C(=O)N1 [Nitrofurantoin]
- Experimental log S [2]: -3.47

SMILES: O=C(CC(c1ccccc1)c1ccccc1)Nc1nc2ccccc2s1 [IGS-1.76]
- reported inhibition of the NCS-1/Ric8a interaction (NCS-1/Ric8a interaction): strong

- Papp at 2.5 h [1]: 13 ± 2 nm/s
- Pe (10-6 cm s-1) Experimental 1 [1]: 1.3 10-6 cm s-1
- Pe (10-6 cm s-1) Experimental 2 [1]: 1.16 10-6 cm s-1
- Pe (10-6 cm s-1) Experimental 3 [1]: 1.44 10-6 cm s-1
SMILES: CN1C(C(=O)Nc2ccccn2)=C(O)c2ccccc2S1(=O)=O [Piroxicam]

SMILES: O=C1NC(=O)C(c2ccccc2)(c2ccccc2)N1 [Phenytoin]
- Experimental log S [2]: -3.99

SMILES: O=C(CN1CCCCC1)NN1c2ccccc2Sc2ccccc21 [FD44]
- reported inhibition of the NCS-1/Ric8a interaction (NCS-1/Ric8a interaction): strong

SMILES: O=C1OC(c2ccc(O)cc2)(c2ccc(O)cc2)c2ccccc21 [Phenolpthalein]
- Experimental log S [2]: -2.60

- RPA, Blank DCL (dNCS-1; as fraction of total area): 0.3277
- RPA, Templated DCL (dNCS-1; as fraction of total area, with dNCS-1): 0.4342
- RPA (%) with protein (templated DCL) (dNCS-1; relative peak area in presence of dNCS-1): 43.4% and 43.4187%
- RPA (%) without protein (blank DCL) (dNCS-1; relative peak area, sum of all peak areas set to 100%): 32.8% and 32.7742%
- RPA (%), Blank DCL (dNCS-1; sheet Supplementary Figure 10): 32.8%
- RPA (%), Templated DCL (dNCS-1; sheet Supplementary Figure 10, with dNCS-1): 43.4%
SMILES: O=C(N/N=C/c1ccc([N+](=O)[O-])c(O)c1)c1cccs1 [3e]

- Pe (10-6 cm s-1) Experimental 1 [1]: 1.4 10-6 cm s-1
- Pe (10-6 cm s-1) Experimental 2 [1]: 1.30 10-6 cm s-1
- Pe (10-6 cm s-1) Experimental 3 [1]: 1.47 10-6 cm s-1
SMILES: CCn1cc(C(=O)O)c(=O)c2cc(F)c(N3CCNCC3)nc21 [Enoxacin]

- Papp at 2.5 h [1]: 95 ± 6 nm/s
- Pe (10-6 cm s-1) Experimental 1 [1]: 9.5 10-6 cm s-1
- Pe (10-6 cm s-1) Experimental 2 [1]: 9.04 10-6 cm s-1
- Pe (10-6 cm s-1) Experimental 3 [1]: 9.94 10-6 cm s-1
SMILES: CN(C)CCCN1c2ccccc2Sc2ccccc21 [Promazine]

SMILES: CN(C)C(=O)Nc1ccc(Cl)c(Cl)c1 [Diuron]
- Experimental log S [2]: -3.80

SMILES: Cl[C@H]1[C@H](Cl)[C@@H](Cl)[C@@H](Cl)[C@H](Cl)[C@H]1Cl [Lindane]
- Experimental log S [2]: -4.64

SMILES: CCOP(=S)(OCC)Oc1ccc([N+](=O)[O-])cc1 [Parathion]
- Experimental log S [2]: -4.66

SMILES: CC(=O)Oc1ccccc1C(=O)O [Aspirin]
- Experimental log S [2]: -1.72

- Pe (10-6 cm s-1) Experimental 2 [1]: 16.20 10-6 cm s-1
- Pe (10-6 cm s-1) Experimental 3 [1]: 13.70 10-6 cm s-1
SMILES: CNCCCN1c2ccccc2CCc2ccccc21 [Desipramine]

SMILES: CCOP(=S)(OCC)Oc1nc(Cl)c(Cl)cc1Cl [Chlorpyriphos]
- Experimental log S [2]: -5.49

SMILES: CCOC(=O)c1ccc(N)cc1 [Benzocaine]
- Experimental log S [2]: -2.32
